Data: US10875874B2, “Ginkgolide B derivative and preparation method and use thereof” (Chengdu Baiyu Ginkgolide Pharmaceuticals Co., Ltd., priority 2015, dated 2020)
In brackets after ≈: the same amount, converted by molar mass. Marks after values point to notes of the source that are not given here.

Assays:
[1] = Weekly body weight of SHR rats; assay type: in vivo, rat
Outline: (§1)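 Male and female SHR rats (200-250 g, 8/group) dosed intragastrically once daily for 8 weeks with test compounds at 60 or 120 mg/kg/d or captopril 27 mg/kg; Wistar and SHR controls received distilled water. Body weight and food intake observed during treatment.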

[2] = test system: spontaneously hypertensive rats (SHR); test: Caudal artery systolic pressure of spontaneously hypertensive rats, single administration; assay type: in vivo, rat; conditions: x ± s, n = 8
Outline: (§2)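 SHR rats of both sexes (200–250 g, 8/group) dosed intragastrically with 60 or 120 mg/kg/d, or captopril 27 mg/kg, once daily for 8 weeks; Wistar rats and vehicle SHR served as controls. Tail-cuff systolic pressure taken as the mean of 3 readings, measured before dosing and 30–120 min after the first dose, or 30 min post-dose on days 1–56 for chronic treatment.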

[3] = Weekly food intake of SHR rats; assay type: in vivo, rat
Outline: as §1

[4] = test system: spontaneously hypertensive rats (SHR); test: Caudal artery systolic pressure of spontaneously hypertensive rats, 8 weeks of continuous medication; assay type: in vivo, rat; conditions: x ± s, n = 8
Outline: as §2

[5] = Water solubility test; conditions: purified water, thermodynamic from solid
Experimental: (§3) Measuring method: samples are ground to obtain fine powder, target compounds are quantitatively weighed, the weighed compounds are added into purified water, and the solubility of the compounds is investigated by ultrasonics.

[6] = physchem; conditions: water, thermodynamic from solid
Experimental: as §3

[7] = 60 mg/kg/d intragastric, week 0
[8] = 60 mg/kg/d intragastric, week 1
[9] = 60 mg/kg/d intragastric, week 2
[10] = 60 mg/kg/d intragastric, week 3
[11] = 60 mg/kg/d intragastric, week 4
[12] = 60 mg/kg/d intragastric, week 5
[13] = 60 mg/kg/d intragastric, week 6
[14] = 60 mg/kg/d intragastric, week 7
[15] = 60 mg/kg/d intragastric, week 8
[16] = 120 mg/kg/d intragastric, week 0
[17] = 120 mg/kg/d intragastric, week 1
[18] = 120 mg/kg/d intragastric, week 2
[19] = 120 mg/kg/d intragastric, week 3
[20] = 120 mg/kg/d intragastric, week 4
[21] = 120 mg/kg/d intragastric, week 5
[22] = 120 mg/kg/d intragastric, week 6
[23] = 120 mg/kg/d intragastric, week 7
[24] = 120 mg/kg/d intragastric, week 8
[25] = 60 mg/kg intragastric single administration, 30 min
[26] = 60 mg/kg intragastric single administration, 60 min
[27] = 60 mg/kg intragastric single administration, 90 min
[28] = 60 mg/kg intragastric single administration, 120 min
[29] = 60 mg/kg intragastric single administration, before administration
[30] = 120 mg/kg intragastric single administration, 30 min
[31] = 120 mg/kg intragastric single administration, 60 min
[32] = 120 mg/kg intragastric single administration, 90 min
[33] = 120 mg/kg intragastric single administration, 120 min
[34] = 120 mg/kg intragastric single administration, before administration
[35] = 60 mg/kg/d intragastric continuous, 1 d, 30 min after administration
[36] = 60 mg/kg/d intragastric continuous, 7 d, 30 min after administration
[37] = 60 mg/kg/d intragastric continuous, 13 d, 30 min after administration
[38] = 60 mg/kg/d intragastric continuous, 19 d, 30 min after administration
[39] = 60 mg/kg/d intragastric continuous, 25 d, 30 min after administration
[40] = 60 mg/kg/d intragastric continuous, 35 d, 30 min after administration
[41] = 60 mg/kg/d intragastric continuous, 49 d, 30 min after administration
[42] = 60 mg/kg/d intragastric continuous, 56 d, 30 min after administration
[43] = 60 mg/kg/d intragastric continuous, before administration
[44] = 120 mg/kg/d intragastric continuous, 1 d, 30 min after administration
[45] = 120 mg/kg/d intragastric continuous, 7 d, 30 min after administration
[46] = 120 mg/kg/d intragastric continuous, 13 d, 30 min after administration
[47] = 120 mg/kg/d intragastric continuous, 19 d, 30 min after administration
[48] = 120 mg/kg/d intragastric continuous, 25 d, 30 min after administration
[49] = 120 mg/kg/d intragastric continuous, 35 d, 30 min after administration
[50] = 120 mg/kg/d intragastric continuous, 49 d, 30 min after administration
[51] = 120 mg/kg/d intragastric continuous, 56 d, 30 min after administration
[52] = 120 mg/kg/d intragastric continuous, before administration

Compound: CCCCC(OC(C)=O)c1ccccc1C(=O)O[C@H]1C(=O)O[C@H]2O[C@]34C(=O)OC5C[C@@H](C(C)(C)C)C21[C@@]53[C@@H](O)[C@@H]1OC(=O)[C@@H](C)[C@@]14O (stereo partly shown) [BD]
- Body weight [1, 7]: 229.2 g
- Body weight [1, 8]: 234.5 g
- Body weight [1, 9]: 247.1^▴▴ g
- Body weight [1, 10]: 252.2 g
- Body weight [1, 11]: 257.2 g
- Body weight [1, 12]: 262.4 g
- Body weight [1, 13]: 270.4^▴ g
- Body weight [1, 14]: 280.2^▴▴ g
- Body weight [1, 15]: 290.5^▴▴ g
- Body weight [1, 16]: 230.9 g
- Body weight [1, 17]: 252.0^▴▴ g
- Body weight [1, 18]: 257.5^▴▴ g
- Body weight [1, 19]: 263.9^▴▴ g
- Body weight [1, 20]: 270.8^▴▴ g
- Body weight [1, 21]: 281.2^▴▴ g
- Body weight [1, 22]: 291.0^▴▴ g
- Body weight [1, 23]: 304.7^▴▴ g
- Body weight [1, 24]: 321.7^▴▴ g
- Systolic pressure [2, 25]: 157.74 ± 9.28 mmHg
- Systolic pressure [2, 26]: 152.67 ± 13.52 mmHg
- Systolic pressure [2, 27]: 151.60 ± 12.04 mmHg
- Systolic pressure [2, 28]: 155.68 ± 10.15 mmHg
- Systolic pressure [2, 29]: 163.64 ± 14.02 mmHg
- Systolic pressure [2, 30]: 148.47 ± 10.87 mmHg
- Systolic pressure [2, 31]: 151.75 ± 10.68 mmHg
- Systolic pressure [2, 32]: 157.25 ± 14.38 mmHg
- Systolic pressure [2, 33]: 160.49 ± 14.76 mmHg
- Systolic pressure [2, 34]: 164.57 ± 13.25 mmHg
- Average dairy food intake [3, 7]: 18.7 g/day
- Average dairy food intake [3, 8]: 19.0^▴ g/d
- Average dairy food intake [3, 9]: 19.4^▴ g/d
- Average dairy food intake [3, 10]: 19.8^▴ g/d
- Average dairy food intake [3, 11]: 20.0^▴▴ g/d
- Average dairy food intake [3, 12]: 21.3^▴▴ g/d
- Average dairy food intake [3, 13]: 22.6^▴▴ g/d
- Average dairy food intake [3, 14]: 24.3^▴▴ g/d
- Average dairy food intake [3, 15]: 25.0^▴▴ g/d
- Average dairy food intake [3, 16]: 18.3 g/day
- Average dairy food intake [3, 17]: 20.1^▴ g/d
- Average dairy food intake [3, 18]: 20.6^▴▴ g/d
- Average dairy food intake [3, 19]: 21.0^▴▴ g/d
- Average dairy food intake [3, 20]: 21.5^▴▴ g/d
- Average dairy food intake [3, 21]: 22.8^▴▴ g/d
- Average dairy food intake [3, 22]: 23.9^▴▴ g/d
- Average dairy food intake [3, 23]: 25.4^▴▴ g/d
- Average dairy food intake [3, 24]: 26.9^▴▴ g/d
- Systolic pressure [4, 35]: 156.20 ± 13.41 mmHg
- Systolic pressure [4, 36]: 152.95 ± 11.03 mmHg
- Systolic pressure [4, 37]: 155.74 ± 15.25 mmHg
- Systolic pressure [4, 38]: 153.01 ± 14.04 mmHg
- Systolic pressure [4, 39]: 152.30 ± 10.45 mmHg
- Systolic pressure [4, 40]: 157.03 ± 14.08 mmHg
- Systolic pressure [4, 41]: 153.96 ± 14.74 mmHg
- Systolic pressure [4, 42]: 154.57 ± 12.48 mmHg
- Systolic pressure [4, 43]: 163.64 ± 14.02 mmHg
- Systolic pressure [4, 44]: 150.49 ± 15.34 mmHg
- Systolic pressure [4, 45]: 152.64 ± 11.45 mmHg
- Systolic pressure [4, 46]: 147.33 ± 13.42 mmHg
- Systolic pressure [4, 47]: 145.49 ± 12.98 mmHg
- Systolic pressure [4, 48]: 147.66 ± 14.02 mmHg
- Systolic pressure [4, 49]: 145.61 ± 9.47 mmHg
- Systolic pressure [4, 50]: 148.62 ± 12.04 mmHg
- Systolic pressure [4, 51]: 142.15 ± 13.14 mmHg
- Systolic pressure [4, 52]: 164.57 ± 13.25 mmHg
- solubility [5]: 250 µg/mL (≈ 381 µM)

Compound: Cc1nc(C)c(CO[C@H]2C(=O)O[C@H]3O[C@]45C(=O)OC6C[C@@H](C(C)(C)C)C32[C@@]64[C@@H](O)[C@@H]2OC(=O)[C@@H](C)[C@@]25O)nc1C (stereo partly shown) [BM]
- Body weight [1, 7]: 231.5 g
- Body weight [1, 8]: 236.8 g
- Body weight [1, 9]: 245.7^▴▴ g
- Body weight [1, 10]: 253.4 g
- Body weight [1, 11]: 258.3 g
- Body weight [1, 12]: 263.5^▴ g
- Body weight [1, 13]: 271.3^▴▴ g
- Body weight [1, 14]: 281.6^▴▴ g
- Body weight [1, 15]: 292.5^▴▴ g
- Body weight [1, 16]: 233.4 g
- Body weight [1, 17]: 249.5^▴▴ g
- Body weight [1, 18]: 256.8^▴▴ g
- Body weight [1, 19]: 264.3^▴▴ g
- Body weight [1, 20]: 271.6^▴▴ g
- Body weight [1, 21]: 280.4^▴▴ g
- Body weight [1, 22]: 290.5^▴▴ g
- Body weight [1, 23]: 305.7^▴▴ g
- Body weight [1, 24]: 315.8^▴▴ g
- Systolic pressure [2, 25]: 156.21 ± 9.68 mmHg
- Systolic pressure [2, 26]: 152.06 ± 9.78 mmHg
- Systolic pressure [2, 27]: 151.74 ± 13.15 mmHg
- Systolic pressure [2, 28]: 152.52 ± 15.06 mmHg
- Systolic pressure [2, 29]: 166.27 ± 14.01 mmHg
- Systolic pressure [2, 30]: 149.04 ± 10.95 mmHg
- Systolic pressure [2, 31]: 151.58 ± 9.85 mmHg
- Systolic pressure [2, 32]: 153.65 ± 11.04 mmHg
- Systolic pressure [2, 33]: 151.00 ± 9.85 mmHg
- Systolic pressure [2, 34]: 163.45 ± 15.24 mmHg
- Average dairy food intake [3, 7]: 18.2 g/day
- Average dairy food intake [3, 8]: 19.1^▴ g/d
- Average dairy food intake [3, 9]: 19.9^▴ g/d
- Average dairy food intake [3, 10]: 20.9^▴▴ g/d
- Average dairy food intake [3, 11]: 21.3^▴▴ g/d
- Average dairy food intake [3, 12]: 22.4^▴▴ g/d
- Average dairy food intake [3, 13]: 23.1^▴▴ g/d
- Average dairy food intake [3, 14]: 24.7^▴▴ g/d
- Average dairy food intake [3, 15]: 25.5^▴▴ g/d
- Average dairy food intake [3, 16]: 18.5 g/day
- Average dairy food intake [3, 17]: 19.9^▴ g/d
- Average dairy food intake [3, 18]: 20.7^▴▴ g/d
- Average dairy food intake [3, 19]: 22.6^▴▴ g/d
- Average dairy food intake [3, 20]: 22.9^▴▴ g/d
- Average dairy food intake [3, 21]: 23.7^▴▴ g/d
- Average dairy food intake [3, 22]: 24.4^▴▴ g/d
- Average dairy food intake [3, 23]: 25.8^▴▴ g/d
- Average dairy food intake [3, 24]: 27.6^▴▴ g/d
- Systolic pressure [4, 35]: 155.25 ± 12.36 mmHg
- Systolic pressure [4, 36]: 154.85 ± 10.49 mmHg
- Systolic pressure [4, 37]: 153.26 ± 12.95 mmHg
- Systolic pressure [4, 38]: 156.74 ± 10.36 mmHg
- Systolic pressure [4, 39]: 154.75 ± 10.39 mmHg
- Systolic pressure [4, 40]: 151.48 ± 10.32 mmHg
- Systolic pressure [4, 41]: 151.17 ± 14.05 mmHg
- Systolic pressure [4, 42]: 154.64 ± 11.42 mmHg
- Systolic pressure [4, 43]: 166.27 ± 14.01 mmHg
- Systolic pressure [4, 44]: 154.62 ± 5.74 mmHg
- Systolic pressure [4, 45]: 152.31 ± 10.56 mmHg
- Systolic pressure [4, 46]: 151.58 ± 12.06 mmHg
- Systolic pressure [4, 47]: 153.06 ± 10.41 mmHg
- Systolic pressure [4, 48]: 148.54 ± 11.62 mmHg
- Systolic pressure [4, 49]: 149.36 ± 10.75 mmHg
- Systolic pressure [4, 50]: 150.32 ± 9.59 mmHg
- Systolic pressure [4, 51]: 149.78 ± 11.64 mmHg
- Systolic pressure [4, 52]: 163.45 ± 15.24 mmHg
- solubility [6]: 250 µg/mL (≈ 448 µM)
